Measured values published in patent US20240366756A1, “COMBINATIONS AND USES THEREOF” (Incyte Corporation, priority 2011, published 2024).
Marks after values point to notes of the source that are not given here.

T1: Human CD19 (human, UniProt P15391 20-556)
T1 sequence: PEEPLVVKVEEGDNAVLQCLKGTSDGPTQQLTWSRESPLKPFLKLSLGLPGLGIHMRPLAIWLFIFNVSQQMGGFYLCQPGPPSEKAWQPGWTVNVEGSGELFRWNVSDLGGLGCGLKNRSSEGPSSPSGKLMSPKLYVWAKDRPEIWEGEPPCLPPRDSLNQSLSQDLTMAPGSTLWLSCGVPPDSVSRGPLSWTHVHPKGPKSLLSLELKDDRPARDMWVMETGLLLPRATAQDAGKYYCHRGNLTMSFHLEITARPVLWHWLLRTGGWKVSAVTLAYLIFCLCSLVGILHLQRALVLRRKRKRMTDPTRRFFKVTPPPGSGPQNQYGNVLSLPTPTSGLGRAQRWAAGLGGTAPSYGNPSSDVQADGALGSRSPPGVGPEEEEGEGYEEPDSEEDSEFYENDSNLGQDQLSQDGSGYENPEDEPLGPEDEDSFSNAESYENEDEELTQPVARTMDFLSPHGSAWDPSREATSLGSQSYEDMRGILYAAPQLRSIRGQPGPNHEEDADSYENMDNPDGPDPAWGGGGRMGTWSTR

B1: MOR00208 (antibody, human IgG1, kappa, V domains shown)
VH: EVQLVESGGGLVKPGGSLKLSCAASGYTFTSYVMHWVRQAPGKGLEWIGYINPYNDGTKYNEKFQGRVTISSDKSISTAYMELSSLRSEDTAMYYCARGTYYYGTRVFDYWGQGTLVTVSS
VL: DIVMTQSPATLSLSPGERATLSCRSSKSLQNVNGNTYLYWFQQKPGQSPQLLIYRMSNLNSGVPDRFSGSGSGTEFTLTISSLEPEDFAVYYCMQHLEYPITFGAGTKLEIKR

Key:
MEC-1 cells = test: Cytotoxicity/ADCC cell killing of MEC-1 cells with PBMCs (FACS, propidium iodide); format: cell-based, human; conditions: for normalized specific killing: combination set to 1, Bendamustine 100 μg/ml, MOR00208 6.6 pM; for % dead cells: MOR00208 6.6 pm, BEN 100 μg/ml (48 h pre-incubation), E:T 30:1, 4 h, control RefMab33
From the text: MEC-1 cells: chronic B-cell leukemia cell line DSMZ #ACC497; Cell Medium: Iscove's Modified Dulbecco's Medium (IMDM) with GlutaMAX™, Invitrogen, Cat No.: 31980-048, 20% FCS; PBMCs: RPMI1640, with stabile Glutamine, PAN Biotech GmbH, Cat No.: P04-13500 supplemented with 10% FCS; Biocoll: Biochrome AG CAT No.: L6115 LOT No.: 1050T; Bendamustine: Mundipharma LOT No.: 88018; FCS: PAN CAT No.: 3302-P282403 LOT No.: P282403; and RefmAb33 (anti-RSV) with same Fc region as MOR00208.
The cytotoxicity of MOR00208 and bendamustine alone and in combination was tested in MEC-1 cells. BEN is an alkylating agent, therefore, functions via direct cytoxicity in MEC-1 cells. MOR00208 targets CD19 and additionally functions via ADCC in killing MEC-1 cells. For the following groups MEC-1 cell killing was measured: BEN at 100 μg/ml; MOR00208 at 6.6 pm and the combination of MOR00208 at 6.6 pm and BEN at 100 μg/ml. […] The following were used as controls: RefmAb33, or PBMCs alone. In both the BEN group and MOR00208+BEN combination group, MEC-1 cells were pre-incubated with BEN 48 hours prior to the ADCC assay measurements. The MEC-1 cells were stained using 1 mg/ml Calcein AM then counted and adjusted to 2×10^5/ml. The PBMCs were counted and adjusted to 6×10^6/ml. The cell killing assays were done as follows: using 96 well plates, a 100 μl cell suspension of MEC-1 cells was added per well, then 100 μl cell suspension of PBMCs was added to each well resulting in an E:T ratio of 30:1. The antibodies were diluted to 1 μg/ml in medium. Cells were centrifuged and re-suspended. To the target:effector cell-pellet, 100 μl antibody solution or according control solution was added. The mixture was incubated for 4 h in CO2-incubator at 37° C. The cell killing measurements were taken as follows: the incubated cell solution (˜100 μl) was transferred into FACS tubes and 200 μl FACS buffer (DPBS+3% FCS) and 0.5 μl PI stock solution was added to each tube. FACS-Calibur was used. Dead MEC-1 cells were stained with propidium iodide.
The values represent % dead cells. Each experiment represents PBMCs from different donors. The controls used for each experiment was RefMab33.
The values shown in Table 2 are calculated as follows: 1) from the raw data (% dead cells) shown in Table 1, the background (controls) were subtracted, resulting in the specific killing for each treatment group; then 2) the specific killing values were normalized by setting the combination of MOR00208+BEN to 1. The averages of Table 2 are depicted in FIG. 5.
[…] (CI) calculations were completed in order to determine synergy of the combination of the exemplified anti-CD19 antibody and bendamustine as compared to MOR00208 and BEN alone. Such calculations are described in Ting-Chao Chou, Theoretical Basis, Experimental Design, and Computerized Simulation of Synergism and Antagonism in Drug Combination Studies, Pharmacol Rev 58:621-681 (2006), which is incorporated by reference in its entirety and Chou T C, Talalay P, Quantitative analysis of dose-effect relationships: the combined effects of multiple drugs or enzyme inhibitors. Adv Enzyme Regul 22:27-55 (1984), which is incorporated by reference in its entirety. The methods of Chou-Talalay are carried out using the CI-isobol method.
The median-effect equation models of the effect of an inhibitor (such as a drug) as Fa/Fu=(D/D50)^m, where D is the dose, Fa and Fu is the fraction of the system affected and unaffected by the dose D (Fa+Fu=1); D50 is the dose producing the median effect (e.g. IC50, ED50, LD50). The constant m determines the shape of the dose-effect curve. We used Excel Fit software to carry out a linear regression calculation to estimate the parameters m and D50.
The effects of the combination on MEC-1 cells is measured % cell death as described above.

[1] = test system: RAMOS human Burkitt's lymphoma cells; test: Human Non-Hodgkin RAMOS tumor in SCID mice, survival model; format: in vivo; conditions: for Median Survival (Days Post-Inoculation): treatment related deaths excluded; for Median % Increase in Lifespan (ILS): vs. vehicle control/Ref_mAb_33; for Survival, pairwise comparison (Holm-Sidak) vs. Group 3: Group 3 = Bendamustine (16 mg/kg), listed as Bendamustine = 13 mg/kg
Protocol: Cyclophosphamide (Baxter, Lot. No. 1A548C); Vehicle Control: 0.9% sodium chloride, 25 mg/ml mannitol, pH 6.5-6.8 (adjusted with 0.01 M NaOH); SCID Mice (University of Adelaide, Waite Campus, Urrbaraie, SA, Australia, Strain C.B.-17-Igh-1^b-Prkdc^scid); RAMOS human Burkitt's lymphoma cells (ATCC number CRL-1596); Ref_mAb_33_IgG_Xen (10 mg/mL in PBS, referred to as Ref_mAb_33); Bendamustine (Mundipharma, Lot No. 83889).
SCID mice were pre-treated with Cyclophosphamide (75 mg/kg, i.p., twice daily) for two days prior to RAMOS cell inoculation (Day −2 and −1). On the day of inoculation (Day 0), the mice were separated into seven groups of ten mice each, and inoculated with 1×10^6 RAMOS cells each intravenously into the tail vein. The planned dosing regimen for each group is shown in Table 5 and commenced on Day 3. The study duration was 60 days.
From the raw data shown in Table 6, both the median survival in days and median increase in lifespan were calculated. All treatment related deaths were excluded in the calculations.
Median % Increased Lifespan (ILS) is calculated as follows: […]
The classification of the MOR000208/Bendamustine combination therapy (combo) effect was evaluated by comparing the ILS of the combination with the added ILS of the respective monotherapies:
Synergy/Potentiation*: ILSCombo>ILSMOR00208 3 mg/kg+ILSBendamustine. Synergistic effects are classified as potentiation if at least one of the monotherapies has no effect. Additivity: ILSCombo=ILSMOR00208 3 mg/kg+ILSBendamustine. Antagonism: ILSCombo<ILSMOR00208 3 mg/kg+ILSBendamustine.
In addition to an analysis of the data for purposes of identifying synergy, the following statistical analysis was also completed. Statistical analyses were carried out using the median values. Any animal that died unexpectedly or was culled prior to Day 17 of the study in the Test Article treatment groups was excluded from survival analysis calculation. The death/culling of these animals was attributed to compound toxicity rather than disease progression as they occurred well in advance of the first deaths in the Vehicle Control animals. A survival curve was created using the product limit of Kaplan and Meier, and survival curves compared using the log-rank (Mantel-Cox) test. Where significant differences were found, All Pairwise Multiple Comparison (Holm-Sidak Test) was performed. Comparison was done between all groups. In addition the comparison of the following groups were summarised in separate figures for each test article: Vehicle Control/Ref_mAb (group 10) against Bendamustine groups (Groups 2, 3 and 4) and Vehicle Control/Ref_mAb (group 10) against Combination groups (Groups 5 and 6) or respective MOR00208 monotherapy group (group 1). A p value of less than 0.05 was considered significant.

Human CD19 = target: T1, Human CD19; test: cell-based or functional assay

Molecule | normalized specific killing (MEC-1 cells; Average of experiments 1-3) | % dead cells (MEC-1 cells; Experiment 1 (PBMC donor)) | normalized specific killing (MEC-1 cells; Experiment 1, background subtracted) | % dead cells (MEC-1 cells; Experiment 2 (PBMC donor)) | normalized specific killing (MEC-1 cells; Experiment 2, background subtracted) | % dead cells (MEC-1 cells; Experiment 3 (PBMC donor)) | normalized specific killing (MEC-1 cells; Experiment 3, background subtracted) | EC50 (MEC-1 cells; Homo sapiens, MEC1, read-out: EC50 (MEC-1 cell killing)) | Bonferroni's Multiple Comparison Test Mean Diff. (MEC-1 cells; normalized specific killing, monotherapy vs. BEN + MOR00208 combination) | Median Survival (Days Post-Inoculation) ([1]; 13 mg/kg) | Median % Increase in Lifespan (ILS) ([1]; 13 mg/kg) | Median Survival (Days Post-Inoculation) ([1]; 16 mg/kg) | Median % Increase in Lifespan (ILS) ([1]; 16 mg/kg) | Survival, pairwise comparison (Holm-Sidak) vs. Group 3 ([1]; Table 8) | Survival, pairwise comparison (Holm-Sidak) vs. Group 3 ([1]; untitled repeat of Table 8) | EC50 of MEC-1 cell killing (ADCC with human PBMCs) (Human CD19)
Cn1c(CCCC(=O)O)nc2cc(N(CCCl)CCCl)ccc21 [Bendamustine, reference compound] | 0.8 | 83.6% | 0.85 | 53.3% | 0.75 | 75.6% | 0.85 | ~100 µg/mL | −0.1834 | 24^b Days Post-Inoculation | −5.88% | 24^c Days Post-Inoculation | −5.88% | No (No: There is no statistically significant difference (p ≥ 0.05).) | No (No: There is no statistically significant difference (p ≥ 0.05).) | –
B1 | – | – | – | – | – | – | – | – | – | – | – | – | – | – | – | ~6.6 pM
